Results reported in publication PMC10602545, “Retinal Microenvironment‐Protected Rhein‐GFFYE Nanofibers Attenuate Retinal Ischemia‐Reperfusion Injury via Inhibiting Oxidative Stress and Regulating Microglial/Macrophage M1/M2 Polarization” (Advanced Science, 2023).
Peptide text beside a SMILES is read from it. * marks the point of attachment. X1 = O=C1c2cccc(O)c2C(=O)c2c(O)cc(C(=O)*)cc21

Columns and labels:
R28 cells [1] = assay: Safety evaluation under normoxic conditions (ATP and LDH); type: cell-based; conditions: 24 h
Description: (§1) The retinal precursor cell line R28 was purchased from Kerafast (Boston, MA, USA) and cultured according to the procedures recommended by the supplier. Briefly, the cells were grown and maintained in DMEM complete medium containing 420 mL DMEM, 15 mL sodium bicarbonate (Sigma‐Aldrich, St. Louis, MO, USA), 50 mL calf serum, 5 mL MEM non‐essential amino acids, 5 mL L‐glutamine (GIBCO, Grand Island, NY, USA), and 0.625 mL Gentamicin (80 mg mL^−1; Solarbio Life Sciences Co., Ltd, Beijing, China) at 37 °C in a humidified atmosphere containing 5% CO2. The stock solutions of Rh‐GFFYE and control compounds were diluted to varying concentrations with DMEM complete medium just before cell treatment.
An in vitro OGD model was constructed based on the method detailed by Ryou et al.^[ [56] ^] Briefly, R28 cells were cultured in a glucose‐free medium and subjected to hypoxia (1% O2, 5% CO2) for 24 h. The cells were then re‐oxygenated (21% O2, 5% CO2) for 6 h to simulate RIR. The ATP levels were measured using a CellTiter‐Lumi Plus luminescent cell viability assay (Beyotime, Beijing, China). The cell membrane integrity of the R28 cells was evaluated by LDH release assay (Beyotime, Beijing, China).

[2] = Concentration of rhein in retinas by UPLC-MS/MS; type: in vivo, rat
Description: To further evaluate the concentration of rhein in retinas, the retinas were collected at 7 and 21 days after a single intravitreal injection of Rh‐GFFYE. The retinas were homogenized using a cryogenic homogenizer (ServiceBio, Wuhan, China), and the supernatants were collected after centrifugation for further analysis. The samples were suspended in ethyl acetate and centrifuged for 5 min to obtain the supernatants which were then dried under nitrogen gas flow. The residues were dissolved with mobile phase solution and then quantified using the UPLC‐MS/MS (AB Sciex Triple Quad TM 4500 system, MA, USA) assay.

rat model of RIR injury [3] = conditions: in vivo
Description: Prior to establishing the model, each anesthetized rat was administered with 0.3% ofloxacin eye drops. Topyramide eye solution was used to dilate the pupil, and proparacaine hydrochloride was used as an eye anesthetic. A 30‐gauge needle containing a balanced salt solution was cannulated into the anterior chamber. […] The sham operation, which served as the control, was performed without elevating the IOP. After 60 min, the needle was withdrawn, the IOP was normal, the posterior segment was pale, and the blood supply was restored, confirming the successful establishment of the RIR injury model. […] During the experiment, each animal's body temperature was kept between 36.5 and 37°C.
At 24 h after establishing the RIR injury model, the rats were randomly divided into five groups: Sham, Saline, Rh‐GFFYE, Ac‐GFFYE, and Nap‐GFFYE. The methods for anesthesia and pupil dilation were the same as described above. Intravitreal injection was accomplished using a Hamilton syringe, and 4 µL of Rh‐GFFYE was injected to obtain a final rhein concentration of 20 µM in the vitreous humor.^[ [58] ^]
Before ERG recording, all the rats were randomly divided into five groups (Sham, Saline, Nap‐GFFYE, Ac‐GFFYE, and Rh‐GFFYE) and adapted in the dark for 12 h. […] For scotopic ERG, the responses to white flashes of 3.00 cd∙s∙m^−2 were recorded. […]

[4] = In vivo retinal distribution by CLSM (Cy5.5 label); parameters: species or system rat
Excerpt: To evaluate the distribution of Rh‐GFFYE in RIR‐injured and normal retinas, rats were divided into two groups. At 3, 7, 14, and 21 days after a single intravitreal injection of Cy5.5‐Rh‐GFFYE, the rats were killed and retinas were obtained. Retinal cryosections and retinal whole flat mounts were examined by CLSM to observe the distribution of Rh‐GFFYE in vivo.

[5] = In vivo safety evaluation after intravitreal injection; parameters: species or system rat
Excerpt: For safety evaluation, rats were intravitreally injected Rh‐GFFYE nanofibers. 7 days after injection, ERG was used to detect the retinal function and H&E staining was used to detect the morphology of retina. Orbital blood was taken to detect the contents of ALT and AST in plasma. The major organs (heart, liver, spleen, lung, kidney) were harvested for H&E staining to observe changes in each major organ.

[6] = pH between 8.0 and 9.4; cited from earlier work
Excerpt: Herb‐derived natural products are regarded as promising drug resources due to their anti‐inflammatory and antioxidant effects.^[ [11] ^] Rhein (4,5‐dihydroxyanthraquinone‐2‐carboxylic acid), is an anthraquinone and one of the pharmacologically active components extracted from Rheum.^[ [12] ^] […] Due to its good anti‐apoptotic and anti‐inflammatory effects, rhein has also been used to treat ischemia/reperfus ...

R28 cells [7] = assay: In vitro OGD model, cellular ATP content (CellTiter-Lumi Plus); type: cell-based; conditions: 24 h pretreatment, varying concentrations (Rh-GFFYE 10, 20, 40 µM); n = 3
Description: as §1
An in vitro OGD model was constructed based on the method detailed by Ryou et al.^[ [56] ^] Briefly, R28 cells were cultured in a glucose‐free medium and subjected to hypoxia (1% O2, 5% CO2) for 24 h. […] The ATP levels were measured using a CellTiter‐Lumi Plus luminescent cell viability assay (Beyotime, Beijing, China). The cell membrane integrity of the R28 cells was evaluated by LDH release assay (Beyotime, Beijing, China).

R28 cells [8] = assay: Mitochondrial membrane potential, JC-1 staining after OGD; type: cell-based; conditions: 20 µM, 24 h prior to OGD; JC-1, CLSM
Description: A mitochondrial membrane potential assay kit with JC‐1 (Beyotime, Beijing, China) was used to monitor the changes in the mitochondrial membrane potential of R28 cells subjected to OGD following the procedure recommended by the supplier. Briefly, R28 cells were seeded in dishes at a density of 1 × 10^5 mL^−1 cells and cultured overnight. The cells were treated with Rh‐GFFYE, rhein, Nap‐GFFYE, or Ac‐GFFYE at a concentration of 20 µM for 24 h prior to OGD. Following treatment and recovery, the cells were washed three times with PBS and then incubated with 20 µM JC‐1 for 20 min at 37 °C. After removing the JC‐1 staining solution, the cells were washed three times with JC‐1 dyeing buffer, and 2 mL DMEM was added for CLSM imaging.

R28 cells [9] = assay: Intracellular ROS, H2DCF-DA staining after OGD; type: cell-based; conditions: 20 µM, 24 h before OGD, CLSM
Description: R28 cells were seeded at a density of 1 × 10^5 mL^−1 cells in 35‐mm glass‐bottom Petri dishes and incubated overnight. Before OGD injury, the cells were treated with Rh‐GFFYE, rhein, Nap‐GFFYE, or Ac‐GFFYE at a concentration of 20 µM for 24 h. The OGD‐injured cells were then assayed for intracellular ROS production by H2DCF‐DA staining. Briefly, the cells were treated with 10 µM H2DCF‐DA for 30 min in the cell culture incubator. To remove the unincorporated dye, the cells were washed with PBS and the oxidation of H2DCF‐DA was detected by CLSM.

[10] = tested on: bone marrow‐derived macrophages (BMDMs); assay: LPS-induced cytokine release, ELISA; type: cell-based, mouse; conditions: 20 µM, LPS 100 ng/mL, 24 h
Description: The isolation of mouse BMDMs was performed according to the method of Pineda‐Torra et al.^[ [57] ^] Briefly, the femurs and tibias of C57BL/6 mice were carefully separated and transferred into PBS containing 10% penicillin/streptomycin. The BMDMs were flushed out with a syringe and filtered through a 70‐µm strainer. To further purify the BMDMs, lysis buffer was added to remove the red blood cells. The BMDMs were cultured in a DMEM medium containing macrophage colony‐stimulating factor (MCE, Monmouth Junction, NJ, USA).
BMDMs (1 × 10^5 mL^−1 cells in a volume of 1 mL per well in a 24‐well plate) were pretreated with Rh‐GFFYE, rhein, Nap‐GFFYE, and Ac‐GFFYE at a concentration of 20 µM for 1 h prior to the addition of LPS (100 ng mL^−1) for the specified times (6, 24, and 48 h). The supernatants were collected, and the concentrations of IL‐1β and IL‐6 in the culture medium were measured using ELISA kits (Beyotime, Beijing, China) according to the manufacturer's instructions.

rat model of RIR injury [11] = assay: Rat RIR injury model, H&E staining of the retina; type: in vivo; conditions: intravitreal 4 µL, 20 µM final in vitreous, 24 h after RIR; 7 days; n = 6
Description: (§2) Erythromycin eye ointment was used to prevent bacterial infection.
The changes in retinal morphology caused by RIR injury were visualized by H&E staining. At 7 days after the intravitreal injection of Rh‐GFFYE, the eyeballs were removed and then fixed in 4% paraformaldehyde. The eye tissue was then embedded in paraffin, and 4‐µm‐thick slices were prepared. The H&E staining procedure described previously was followed.^[ [59] ^]

rat model of RIR injury [12] = assay: Rat RIR injury model, immunofluorescence of RGC markers (BRN3A, β‐III‐TUBULIN); type: in vivo; conditions: 7 d after intravitreal injection; n = 6
Description: as §2
The RIR‐injured rats were euthanized at 7 days after the intravitreal injection of Rh‐GFFYE. Immediately after removal, the eyeball was fixed in 4% paraformaldehyde for 2 h at 4 °C, dehydrated overnight in 30% sucrose solution, embedded in an optimal cutting temperature compound embedding bottom box (17 × 17 × 5 mm), and stored at −80 °C. Slices with thicknesses of 8 µm were created using a frozen slicer at −22 °C. The slices were placed on adhesive slides and dried at room temperature for >30 min before proceeding to the next step. For immunofluorescent staining, the retinal sections were permeabilized with enhanced immunostaining permeabilization buffer (Beyotime, Beijing, China) for 20 min, blocked with blocking buffer (Beyotime, Beijing, China), and incubated overnight at 4 °C with the following primary antibodies: anti‐β‐III‐TUBULIN, anti‐IBA1, anti‐GFAP, anti‐BRN3A (Abcam, UK), anti‐CD86, and anti‐CD206 (Cell Signaling Technology, Danvers, MA, USA). After rinsing three times with PBS, the sections were incubated with secondary antibodies at room temperature for 2 h, rinsed three times with PBS, and counterstained with DAPI. Sealed with a cover glass, the slides were then observed by CLSM.

[13] = day 7 after single intravitreal injection of Rh-GFFYE, retina homogenate
[14] = 7 days after intravitreal injection, n = 6

For `O=C(O)CC[C@H](NC(=O)[C@H](Cc1ccc(O)cc1)NC(=O)[C@H](Cc1ccccc1)NC(=O)[C@H](Cc1ccccc1)NC(=O)CNC(=O)c1cc(O)c2c(c1)C(=O)c1cccc(O)c1C2=O)C(=O)O` [Rh‐GFFYE] (X1-GFFYE-OH), the “toxicity on R28 cells (ATP and LDH levels)” value (R28 cells [1]) was “no toxic effect”, the “concentration of rhein in retina at 21 d relative to day 7” value ([2]; 21 d after single intravitreal injection) was “approximately one‐quarter of that at day 7” and the “concentration of rhein in the ischemic retina” value [2, 13] was 27.1 ng/g. For the same compound, the “concentration of rhein in the normal retina” value [2, 13] was 15.2 ng/g, the “amplitudes of the oscillatory potentials (OPs)” value (rat model of RIR injury [3]) was “recovered” and the “scotopic ERG a and b wave amplitudes” value (rat model of RIR injury [3]) was “significant recovery”. The “uptake in ischemic retina compared with control non‐ischemic eyes” value [4] was “increased”, the “morphology of the retina (H&E)” value ([5]; 7 d after intravitreal injection) was “no significant change” and the “retinal function (ERG) of normal rats” value ([5]; 7 d after intravitreal injection, vs normal group, n = 6) was “not significantly changed”. For the same compound, the “serum content of alanine aminotransferase (ALT)” value [5, 14] was “did not show intergroup differences”, the “serum content of aspartate aminotransferase (AST)” value [5, 14] was “did not show intergroup differences” and the “histological structures of main visceral organs (heart, liver, spleen, lung, kidney)” value ([5]; H&E, 7 days after intravitreal injection) was “did not induce noticeable histological changes”.

For `O=C(O)c1cc(O)c2c(c1)C(=O)c1cccc(O)c1C2=O` [rhein, 4,5‐dihydroxyanthraquinone‐2‐carboxylic acid], the “concentration at which rhein self‐assembles into a translucent hydrogel” value [6] is listed as 14100 µM, the “recovery of cell viability (ATP content) under OGD” value (R28 cells [7]) is listed as “no restorative effect” and the “mitochondrial membrane potential (ΔΨm) under OGD” value (R28 cells [8]) is listed as “recovered”. For the same compound, the “intracellular ROS level under OGD” value (R28 cells [9]) was “significant ROS inhibition” and the “anti‐inflammatory effect (release of IL‐1β and IL‐6)” value [10] was “reduced the release of these two inflammatory cytokines to some extent”.

In the case of “Nap‐GFFYE [control peptide compound in which rhein is replaced with 1‐naphthylacetic acid (Nap)]”, the “IPL thickness after RIR injury” value (rat model of RIR injury [11]) is reported as “did not ameliorate”, the “recovery of cell viability (ATP content) under OGD” value (R28 cells [7]) is reported as “no restorative effect” and the “mitochondrial membrane potential (ΔΨm) under OGD” value (R28 cells [8]) is reported as “no recovery”. The “number of RGCs (BRN3A positive) compared with Saline group” value (rat model of RIR injury [12]) was “No significant differences” and the “anti‐inflammatory effect (release of IL‐1β and IL‐6)” value [10] was “did not show anti‐inflammatory effects”.
